The values that follow come from ChEMBL document CHEMBL4177521, “Therapeutic Potential of Fatty Acid Amide Hydrolase, Monoacylglycerol Lipase, and N-Acylethanolamine Acid Amidase Inhibitors” (J Med Chem, 2017).

In data set [1] the target is T1, N-acylethanolamine-hydrolyzing acid amidase (Homo sapiens, UniProt Q02083).
T1 sequence (Q02083 whole entry): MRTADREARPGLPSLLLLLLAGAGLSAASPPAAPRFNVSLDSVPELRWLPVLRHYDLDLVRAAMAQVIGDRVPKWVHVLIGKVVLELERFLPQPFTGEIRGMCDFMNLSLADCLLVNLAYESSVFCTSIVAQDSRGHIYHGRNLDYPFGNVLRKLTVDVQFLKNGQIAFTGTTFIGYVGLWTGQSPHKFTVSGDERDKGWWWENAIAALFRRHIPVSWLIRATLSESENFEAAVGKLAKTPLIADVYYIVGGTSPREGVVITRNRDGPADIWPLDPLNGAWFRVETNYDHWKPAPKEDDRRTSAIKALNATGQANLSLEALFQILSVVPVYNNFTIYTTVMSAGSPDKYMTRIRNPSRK
The data set can be described thus: Inhibition of recombinant human NAAA expressed in HEK293 cells preincubated for 10 mins followed by PAMCA substrate addition after 30 mins by fluorescence assay. The data set is classed as cell-based.

Data set [2] has as its target T2, Monoglyceride lipase (Mus musculus, UniProt O35678).
T2 sequence (O35678 whole entry): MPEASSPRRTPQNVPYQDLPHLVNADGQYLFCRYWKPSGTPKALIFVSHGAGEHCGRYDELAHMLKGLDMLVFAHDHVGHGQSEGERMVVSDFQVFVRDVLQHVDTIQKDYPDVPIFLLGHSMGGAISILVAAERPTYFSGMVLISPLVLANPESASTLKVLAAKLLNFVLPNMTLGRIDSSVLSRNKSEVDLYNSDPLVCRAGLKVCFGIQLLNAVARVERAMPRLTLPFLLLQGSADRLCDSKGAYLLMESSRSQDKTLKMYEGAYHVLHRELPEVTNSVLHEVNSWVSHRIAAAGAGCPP
Kind of data set: Inhibition of mouse MAGL.

Data set [3] has as its target T3, Monoglyceride lipase (Rattus norvegicus, UniProt Q8R431).
T3 sequence (Q8R431 whole entry): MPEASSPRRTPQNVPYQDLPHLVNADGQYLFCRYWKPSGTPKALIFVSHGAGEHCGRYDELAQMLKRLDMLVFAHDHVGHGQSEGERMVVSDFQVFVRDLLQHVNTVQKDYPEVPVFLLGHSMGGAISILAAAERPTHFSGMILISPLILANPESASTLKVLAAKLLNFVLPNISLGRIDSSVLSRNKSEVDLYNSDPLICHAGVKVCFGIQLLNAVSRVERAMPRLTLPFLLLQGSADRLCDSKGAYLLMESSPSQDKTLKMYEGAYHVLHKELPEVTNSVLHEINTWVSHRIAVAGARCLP
Kind of data set: Inhibition of rat MAGL.

Data set [4] deals with T4, Fatty-acid amide hydrolase 1 (Rattus norvegicus, UniProt P97612).
T4 sequence (P97612 whole entry): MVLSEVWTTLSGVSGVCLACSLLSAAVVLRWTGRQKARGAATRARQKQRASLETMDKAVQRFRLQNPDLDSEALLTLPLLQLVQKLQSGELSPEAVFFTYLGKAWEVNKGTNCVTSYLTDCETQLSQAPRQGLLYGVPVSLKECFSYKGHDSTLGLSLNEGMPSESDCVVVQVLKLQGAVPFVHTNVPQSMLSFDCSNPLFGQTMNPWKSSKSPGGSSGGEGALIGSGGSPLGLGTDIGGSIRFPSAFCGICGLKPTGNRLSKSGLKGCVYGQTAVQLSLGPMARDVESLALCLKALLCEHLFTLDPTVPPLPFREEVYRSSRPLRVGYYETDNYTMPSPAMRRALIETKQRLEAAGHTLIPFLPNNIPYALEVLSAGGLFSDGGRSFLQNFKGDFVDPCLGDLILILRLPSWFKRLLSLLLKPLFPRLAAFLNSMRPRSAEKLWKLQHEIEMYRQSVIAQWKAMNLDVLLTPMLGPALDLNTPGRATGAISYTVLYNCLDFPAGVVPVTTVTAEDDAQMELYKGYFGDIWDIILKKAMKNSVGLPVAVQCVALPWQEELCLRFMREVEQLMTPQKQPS
The data set can be described thus: Inhibition of rat brain microsomal FAAH using N-(2-hydroxyethyl)-4-pyren-1-yl-butanamide as substrate after 60 mins by RP HPLC based fluorescence assay.

For data set [5], the target named is T5, Monoglyceride lipase (Homo sapiens, UniProt Q99685).
T5 sequence (Q99685 whole entry): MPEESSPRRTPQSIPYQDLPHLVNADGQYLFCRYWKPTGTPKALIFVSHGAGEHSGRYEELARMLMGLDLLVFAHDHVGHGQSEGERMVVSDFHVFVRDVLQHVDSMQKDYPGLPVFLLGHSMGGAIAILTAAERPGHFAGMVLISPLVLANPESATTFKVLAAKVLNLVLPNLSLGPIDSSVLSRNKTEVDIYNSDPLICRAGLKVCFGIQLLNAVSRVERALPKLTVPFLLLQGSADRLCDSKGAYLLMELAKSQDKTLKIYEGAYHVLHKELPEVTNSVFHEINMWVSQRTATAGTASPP
The data set can be described thus: Inhibition of recombinant human N-terminal His6-tagged and C-terminal Strep-tagged MAGL expressed in Escherichia coli Rosetta using [3H]2-OG as substrate after 10 mins by liquid scintillation counting method.

Data set [6] has as its target T4, Fatty-acid amide hydrolase 1. The data set can be described thus: Inhibition of Sprague-Dawley rat brain FAAH preincubated for 10 mins followed by [3H]-anandamide substrate addition after 30 mins by liquid scintillation counting method.
Data set [7] deals with T3, Monoglyceride lipase. Kind of data set: Inhibition of recombinant rat MAGL expressed in Escherichia coli using 2-AG as substrate.
Data set [8] addresses T3, Monoglyceride lipase. The data set can be described thus: Inhibition of rat MAGL preincubated for 30 mins followed by FP-Rh addition after 30 mins by gel-based ABPP assay.
Data set [9] addresses T2, Monoglyceride lipase. Kind of data set: Inhibition of mouse MAGL preincubated for 30 mins followed by FP-Rh addition after 30 mins by gel-based ABPP assay.
Data set [10] addresses T5, Monoglyceride lipase. The data set can be described thus: Inhibition of recombinant human full length MAGL expressed in HEK293 cells preincubated for 30 mins followed by FP-Rh addition after 30 mins by gel-based ABPP assay. The data set is classed as cell-based.
In data set [11] the target is T3, Monoglyceride lipase. The data set can be described thus: Inhibition of rat cerebellar membranes MAGL-like activity preincubated for 30 mins followed by 2-AG substrate addition after 90 mins by HPLC analysis. More on the design: species or system Cerebellum, Membrane.
A short description of data set [12]: Half life in mouse plasma. The data set is classed as ADME, cell-free.
Data set [13] addresses T4, Fatty-acid amide hydrolase 1. Kind of data set: Inhibition of rat FAAH assessed as reduction in [14C]oleamide conversion to oleic acid by Lineweaver-Burk plot analysis.
The nature of data set [14]: Half life in rat plasma at 3 uM by LC/MS analysis. The data set is classed as ADME, cell-free.
For data set [15], the target named is T6, Fatty-acid amide hydrolase 2 (Homo sapiens, UniProt Q6GMR7).
T6 sequence (Q6GMR7 whole entry): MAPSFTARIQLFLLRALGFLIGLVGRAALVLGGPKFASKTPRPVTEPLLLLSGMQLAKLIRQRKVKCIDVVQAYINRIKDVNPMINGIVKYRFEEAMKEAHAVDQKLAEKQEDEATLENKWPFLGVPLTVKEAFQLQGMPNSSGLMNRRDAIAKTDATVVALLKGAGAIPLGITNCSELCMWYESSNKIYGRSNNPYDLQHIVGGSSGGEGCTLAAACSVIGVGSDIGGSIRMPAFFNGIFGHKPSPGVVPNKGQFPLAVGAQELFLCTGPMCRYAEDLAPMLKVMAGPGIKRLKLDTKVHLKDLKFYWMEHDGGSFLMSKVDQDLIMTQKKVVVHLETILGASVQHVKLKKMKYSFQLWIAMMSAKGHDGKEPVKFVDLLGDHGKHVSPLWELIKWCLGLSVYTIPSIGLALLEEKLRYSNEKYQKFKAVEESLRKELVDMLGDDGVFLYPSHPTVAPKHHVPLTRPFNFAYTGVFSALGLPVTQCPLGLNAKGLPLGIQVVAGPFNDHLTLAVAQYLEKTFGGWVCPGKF
The data set can be described thus: Inhibition of recombinant human N-terminal FLAG-tagged/C-terminal Myc-His6 tagged FAAH2 (32 to 579 residues) expressed in COS7 cell membranes. The data set is classed as cell-based.

For data set [16], the species on record is Homo sapiens. Kind of data set: Selectivity index, ratio of IC50 for ABHD6 (unknown origin) to IC50 for human MAGL.
Data set [17] is filed under the species Homo sapiens. Kind of data set: Selectivity index, ratio of IC50 for FAAH (unknown origin) to IC50 for human MAGL.

A value given as a limit tells only on which side of the number the result lay.

On to `CC(C)(C)[C@@H]1OC(=O)[C@@H]1NC(=O)OCCCCCc1ccccc1`, for which, in data set [1], the IC50 was determined as 302 nM.

For `O=C(N1CCN(C(c2ccccc2)c2ccccc2)CC1)n1ccnc1`, the IC50 in [2] amounted to 2600 nM; in [3] it was 4800 nM.

For `O=C(NCCCCCCCn1nnc(-c2cccc(Cl)c2)n1)Oc1cccnc1`, the IC50 in [4] was 5.3 nM.

As to `O=C(NCCCCCCn1nnc(-c2ccccc2)n1)Oc1cccnc1`, inhibition in [4] was half-maximal at 11 nM (IC50).

In the case of `c1ccc(SSc2ccccc2)cc1`, the IC50 in data set [5] stood at 1600 nM.

`COc1ccc(Cn2cc(CNC(=O)OCc3cn(Cc4cccc(OC)c4)nn3)nn2)cc1`: in data set [6], the IC50 was found to be 5.8 nM.

In the case of `CC(C)=CCC[C@@H](C)[C@@H]1CCC[C@]2(C)C3=C(CC[C@@]12C)[C@@]1(C)CC[C@H](O)C(C)(C)[C@@H]1CC3`, in [7], the IC50 was 315 nM.

As for `O=C(OC(C(F)(F)F)C(F)(F)F)N1CCN(Cc2cccc(Oc3ccccc3)c2)CC1`, the IC50 in data set [8] was 14 nM; in data set [9], 7.6 nM; in data set [10] it was 3.7 nM.

In [11], `CCN1C(=O)C=CC1=O` [N-ETHYLMALEIMIDE] gave an IC50 of 53000 nM.

`O=C(CCc1ccccc1)N[C@H]1COC1=O` displayed a half-life in [12] below 1 min.

`CN(Cc1cccc(-c2ccncc2)c1)C(=O)OC(C(F)(F)F)C(F)(F)F` gave an IC50 in data set [8] of 385 nM.

Consider `O=C(CCCCCCC1CCCCC1)N[C@H]1CNC1=O`, for which the IC50 in data set [1] was 280 nM.

As for `CCCCCCCCCC(=O)c1nc2ncccc2o1`, the Ki in data set [13] was determined as 0.75 nM.

In data set [6], `O=C(NC1CCCCC1)OCc1cn(-c2ccccc2)nn1` gave an IC50 of 381 nM.

Compound `O=C(NC1CCCCC1)OCc1cn(Cc2ccccc2)nn1` yielded an IC50 in [6] of 26.2 nM.

Take `CC(C)(C)[C@@H]1OC(=O)[C@H]1NC(=O)OCc1ccc(-c2ccccc2)cc1`: the IC50 in data set [1] is 507 nM. The compound further registered a half-life at 3 µM in [14] above 5 min.

Regarding `NC(=O)c1cccc(-c2cccc(OC(=O)NC3CCCCC3)c2)c1` [URB-597], in [15], the IC50 came to 5 nM.

Regarding `O=C(N1CCN(C(c2ccccc2)c2ccccc2)CC1)n1cncn1`, the values for the IC50 in [2] and in data set [3] were 0.309 nM and 0.589 nM, respectively.

For the compound `COC(=O)[C@]1(C)CC[C@]2(C)CC[C@]3(C)C4=CC=C5C(=CC(=O)C(O)=C5C)[C@]4(C)CC[C@@]3(C)C2C1` (stereo partly specified), the IC50 in data set [7] stood at 93 nM.

For the compound `O=C(N1CCC(C(c2ccc3c(c2)OCO3)c2ccc3c(c2)OCO3)CC1)n1cncn1`, the Ratio IC50 was found to be 60 in data set [16] and 11200 in data set [17]. In addition, the IC50 worked out at 0.275 nM in [2] and 0.214 nM in data set [3].

In the case of `O=C(CCCCCCCc1ccccc1)c1nc2ncccc2o1`, the Ki in [13] was 0.39 nM.

For `CC(C)(C)[C@@H]1OC(=O)[C@H]1NC(=O)OCCCCCc1ccccc1`, the IC50 in [1] amounted to 234 nM. This compound also showed a half-life at 3 µM in data set [14] above 5 min.
